Drawing on patent publication US8975235B2, “Lysophosphatidic acid receptor antagonists” (InterMune, Inc., priority 2011, dated 2015), this text covers IC50 and EC50 for ten molecules.

Assay type in all cases: cell-based
For one test, the target named is T1, Human LPA3 (Homo sapiens, UniProt Q9UBY5).
T1 construct: The full-length cDNA fragment for human LPA3 is obtained by PCR from the vector; expressed in transfected cells; host or cells: CHO
T1 sequence (Q9UBY5 1-353): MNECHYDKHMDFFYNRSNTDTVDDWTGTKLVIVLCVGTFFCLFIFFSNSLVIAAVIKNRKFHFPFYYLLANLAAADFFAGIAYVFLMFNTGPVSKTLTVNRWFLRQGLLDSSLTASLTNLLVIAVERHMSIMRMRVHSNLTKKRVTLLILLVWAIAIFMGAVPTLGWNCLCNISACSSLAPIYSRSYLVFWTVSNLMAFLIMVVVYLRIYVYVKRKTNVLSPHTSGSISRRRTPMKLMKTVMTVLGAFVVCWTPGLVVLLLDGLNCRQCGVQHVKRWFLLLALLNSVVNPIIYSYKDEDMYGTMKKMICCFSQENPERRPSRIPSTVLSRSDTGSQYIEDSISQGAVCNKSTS
The test is described as follows: LPA3 calcium flux assay. The settings on record: human LPA3 expressing CHO cells; stimulated with 10 nM LPA; read-out: Ca Flux LPA3 IC50. How it is done:
Establishment of a CHO Cell Line Stably Expressing Human LPA3
A vector containing the human LPA3 receptor cDNA is obtained from the Missouri S&T cDNA Resource Center (www.cdna.org). The full-length cDNA fragment for human LPA3 is obtained by PCR from the vector. The nucleotide sequence of the cloned human LPA3 is determined by sequencing and is confirmed to be identical to the published human LPA3 sequence (NCBI accession number NM_012152). The cDNA is cloned into the pcDNA5 pcDNA5/FRT expression plasmid and is transfected in CHO cells using lipofectamine 2000 (Invitrogen Corp., USA). Clones stably expressing human LPA3 are selected using hygromycin and identified as cells that show Ca-influx in response to LPA.
(§1) LPA1 and LPA3 Calcium Flux Assays
(§2) Human LPA1 or LPA3 expressing CHO cells were seeded at 20,000-45,000 cells per well in a 96-well poly-D-lysine coated plate one or two days before the assay. Prior to the assay, the cells were washed once with PBS and then cultured in serum-free media overnight. On the day of the assay, a calcium indicator dye (Calcium 4, Molecular Devices) in assay buffer (HBSS with Ca^2+ and Mg^2+ and containing 20 mM Hepes and 0.3% fatty-acid free human serum albumin) was added to each well and incubation continued for 1 hour at 37° C. 10 μl of test compounds in 2.5% DMSO were added to the cells and incubation continued at room temperature for 30 minutes. Cells were then stimulated by the addition of 10 nM LPA and intracellular Ca^2+ measured using the Flexstation 3 (Molecular Devices). IC50s were determined using Graphpad prism analysis of drug titration curves.

Test [1] addresses T2, Human LPA1 (Homo sapiens, UniProt Q92633). The test is described as follows: Beta-Arrestin based assay for human LPA1R antagonists (PathHunter). Further details: host or cells: CHO. Particulars: CHO cells stably expressing ProLink tagged human LPA1R; agonist LPA 0.5 micromolar. In outline: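 CHO cells stably expressing ProLink-tagged human LPA1R with β-arrestin–EA fusion, assayed by β-galactosidase complementation. Antagonists tested against 0.5 micromolar LPA ([…]), in quadruplicate. End-point luminescence fitted to a 4-parameter logistic to give IC50.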

Test [2] concerns the target T2, Human LPA1. In words: LPA1 calcium flux assay. Further details: the full-length cDNA for human LPA1 is obtained by PCR of the reverse transcription reaction; expressed in transfected cells; host or cells: CHO. The settings on record: human LPA1 expressing CHO cells; stimulated with 10 nM LPA; read-out: Ca Flux LPA1 IC50. How it is done: Establishment of a CHO Cell Line Stably Expressing Human LPA1
A 1.1 kb cDNA encoding the human LPA1 receptor is cloned from human lung. Human lung RNA (Clontech Laboratories, Inc. USA) is reverse transcribed using the RETROscript kit (Ambion, Inc.) and the full-length cDNA for human LPA1 is obtained by PCR of the reverse transcription reaction. The nucleotide sequence of the cloned human LPA1 is determined by sequencing and is confirmed to be identical to the published human LPA1 sequence (An et al. Biochem. Biophys. Res. Commun. 231:619 (1997). The cDNA is cloned into the pcDNA5 pcDNA5/FRT expression plasmid and is transfected in CHO cells using lipofectamine 2000 (Invitrogen Corp., USA). Clones stably expressing human LPA1 are selected using hygromycin and identified as cells that show Ca-influx in response to LPA.
as §1, §2

Structures are written as SMILES.

T2 sequence (Q92633 whole entry, the tested form may be a part): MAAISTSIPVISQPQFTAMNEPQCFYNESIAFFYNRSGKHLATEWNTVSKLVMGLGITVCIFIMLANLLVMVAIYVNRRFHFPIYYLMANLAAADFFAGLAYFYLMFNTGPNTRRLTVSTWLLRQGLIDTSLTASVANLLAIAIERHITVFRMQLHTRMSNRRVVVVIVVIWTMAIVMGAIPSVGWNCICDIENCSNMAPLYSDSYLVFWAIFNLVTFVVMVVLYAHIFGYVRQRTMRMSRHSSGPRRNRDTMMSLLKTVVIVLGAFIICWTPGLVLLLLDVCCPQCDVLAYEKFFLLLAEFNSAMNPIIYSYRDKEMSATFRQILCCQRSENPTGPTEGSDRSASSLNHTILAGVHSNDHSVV

Consider `Cc1noc(-c2ccc(-c3ccc(C(C(=O)O)c4ccccc4)cc3)cc2)c1NC(=O)O[C@H](C)c1ccccc1Cl` (single isomer, unassigned) [Compound 14], for which the IC50 at Human LPA3 is 50 to 500 nM; at Human LPA1 [2], < 50 nM. At Human LPA1 [1], the concentration for a half-maximal effect (EC50) was < 50 nM.

For the molecule `Cc1noc(-c2ccc(-c3ccc(CC(=O)O)c4ccccc34)cc2)c1NC(=O)O[C@H](C)c1ccccc1Cl` [Compound 6], the half-inhibitory concentration (IC50) at Human LPA3 and at Human LPA1 [2] was 50 to 500 nM throughout. Further, on Human LPA1 [1], the concentration giving a half-maximal response (EC50) was < 50 nM.

For `Cc1nsc(-c2ccc(-c3ccc(CC(=O)O)cc3)cc2)c1NC(=O)O[C@H](C)c1ccccc1Cl` [Compound 20], the half-maximal inhibitory concentration (IC50) on Human LPA3 is > 500 nM; on Human LPA1 [2], < 50 nM. This molecule registered an EC50 at Human LPA1 [1] of 50 to 500 nM.

Turning to `Cc1nnn(-c2ccc(-c3ccc(C4(C(=O)O)CC4)cc3)cc2)c1NC(=O)O[C@H](C)c1ccccc1` [Compound 65], the IC50 at Human LPA3 was > 500 nM; on Human LPA1 [2], < 50 nM. The EC50 on Human LPA1 [1] is < 50 nM.

`Cc1noc(-c2ccc(-c3ccc(C4(C(=O)O)CC4)cc3)cc2)c1NC(=O)O[C@H](C)c1ccccc1` [Compound 74]: the half-maximal inhibitory concentration (IC50) is > 500 nM at Human LPA3 and < 50 nM at Human LPA1 [2]. Moreover, at Human LPA1 [1], the EC50 was < 50 nM.

In the case of `C[C@@H](OC(=O)Nc1c(-c2ccc(-c3ccc(C4(C(=O)O)CC4)cc3)cc2)oc2cnccc12)c1ccccc1Cl` [Compound 149], the IC50 on Human LPA3 is > 500 nM; on Human LPA1 [2], 50 to 500 nM. The EC50 on Human LPA1 [1] was < 50 nM.

Take `C[C@@H](OC(=O)Nc1c(-c2ccc(-c3ccc(C4(C(=O)O)CC4)cc3)cc2)oc2ncccc12)c1ccccc1` [Compound 152]: the IC50 on Human LPA3 and on Human LPA1 [2] was 50 to 500 nM throughout. Moreover, the concentration giving a half-maximal response (EC50) at Human LPA1 [1] is < 50 nM.

For the molecule `C[C@@H](OC(=O)Nc1c(-c2ccc(-c3ccc(C4(C(=O)O)CC4)cc3)cc2)oc2ncccc12)c1ccccc1Cl` [Compound 153], the IC50 on Human LPA3 and on Human LPA1 [2] was > 500 nM in each case. Besides, the EC50 at Human LPA1 [1] is < 50 nM.

Regarding `C[C@@H](OC(=O)Nc1c(-c2ccc(-c3ccc(C4(C(=O)O)CC4)cc3)cc2)cnn1C)c1ccccc1` [Compound 170], the IC50 on Human LPA3 was > 500 nM; on Human LPA1 [2], < 50 nM. Further, at Human LPA1 [1], the EC50 was < 50 nM.

In the case of `C[C@@H](OC(=O)Nc1c(-c2ccc(-c3ccc(C4(C(=O)O)CC4)cc3)cc2)cnn1C)c1ccccc1Cl` [Compound 171], the IC50 on Human LPA3 is > 500 nM; at Human LPA1 [2], < 50 nM. On Human LPA1 [1], the EC50 was < 50 nM.
